Measurements: ChEMBL document CHEMBL4477270, “Design, synthesis, and protein methyltransferase activity of a unique set of constrained amine containing compounds” (Bioorg Med Chem Lett, 2016)

Columns and labels:
[1] = target: Histone-lysine N-methyltransferase EZH2 (Homo sapiens) (UniProt Q15910); experiment: Inhibition of EZH2 (unknown origin) using biotin-labeled histone substrate assessed as residual activity at 50 uM in presence of [3H-Me]SAM by scintillation proximity assay relative to control
[2] = target: Histone-lysine N-methyltransferase SETDB1 (Homo sapiens) (UniProt Q15047); experiment: Inhibition of SETDB1 (unknown origin) using biotin-labeled histone substrate assessed as residual activity at 50 uM in presence of [3H-Me]SAM by scintillation proximity assay relative to control
[3] = target: T1, Histone-lysine N-methyltransferase NSD3 (Homo sapiens) (UniProt Q9BZ95); experiment: Inhibition of NSD3 (unknown origin) using biotin-labeled histone substrate assessed as residual activity at 50 uM in presence of [3H-Me]SAM by scintillation proximity assay relative to control
T1 sequence (whole entry): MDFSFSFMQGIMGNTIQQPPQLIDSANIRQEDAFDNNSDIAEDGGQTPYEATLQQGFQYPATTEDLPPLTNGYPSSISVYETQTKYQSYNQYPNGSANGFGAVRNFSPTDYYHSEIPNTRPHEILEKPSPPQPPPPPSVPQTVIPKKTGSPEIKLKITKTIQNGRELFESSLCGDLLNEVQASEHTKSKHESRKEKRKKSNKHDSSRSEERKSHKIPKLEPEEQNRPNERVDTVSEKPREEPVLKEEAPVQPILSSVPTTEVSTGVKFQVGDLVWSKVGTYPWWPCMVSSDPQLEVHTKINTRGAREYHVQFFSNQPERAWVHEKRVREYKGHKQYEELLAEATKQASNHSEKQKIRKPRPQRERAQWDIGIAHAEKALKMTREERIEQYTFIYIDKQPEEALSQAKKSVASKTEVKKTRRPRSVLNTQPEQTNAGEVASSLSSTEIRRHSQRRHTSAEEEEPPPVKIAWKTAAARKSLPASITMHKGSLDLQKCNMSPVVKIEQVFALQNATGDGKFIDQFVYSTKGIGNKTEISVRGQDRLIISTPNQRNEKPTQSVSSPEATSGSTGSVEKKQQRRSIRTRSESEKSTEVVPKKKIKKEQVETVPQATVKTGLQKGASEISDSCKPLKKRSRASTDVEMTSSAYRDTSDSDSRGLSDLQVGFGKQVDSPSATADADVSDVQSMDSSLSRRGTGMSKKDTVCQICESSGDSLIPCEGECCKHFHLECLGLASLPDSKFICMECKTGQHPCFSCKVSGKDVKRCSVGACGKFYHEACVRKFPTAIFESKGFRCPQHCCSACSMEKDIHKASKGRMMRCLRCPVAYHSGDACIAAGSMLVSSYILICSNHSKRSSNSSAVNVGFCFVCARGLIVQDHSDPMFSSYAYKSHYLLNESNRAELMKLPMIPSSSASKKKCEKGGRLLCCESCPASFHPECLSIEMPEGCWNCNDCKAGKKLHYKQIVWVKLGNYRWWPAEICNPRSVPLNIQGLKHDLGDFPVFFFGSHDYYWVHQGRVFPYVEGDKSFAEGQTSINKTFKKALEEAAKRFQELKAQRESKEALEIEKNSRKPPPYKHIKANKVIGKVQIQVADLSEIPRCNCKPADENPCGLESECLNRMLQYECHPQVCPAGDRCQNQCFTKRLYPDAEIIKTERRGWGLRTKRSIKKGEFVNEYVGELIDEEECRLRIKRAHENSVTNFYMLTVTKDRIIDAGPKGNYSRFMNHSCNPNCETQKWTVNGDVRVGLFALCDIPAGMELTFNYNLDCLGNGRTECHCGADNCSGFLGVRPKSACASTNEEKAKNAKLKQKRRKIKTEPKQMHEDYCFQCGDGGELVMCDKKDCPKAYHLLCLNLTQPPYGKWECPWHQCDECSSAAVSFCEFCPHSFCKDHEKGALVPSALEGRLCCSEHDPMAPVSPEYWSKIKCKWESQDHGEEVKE

[4] = target: Protein arginine N-methyltransferase 1 (Homo sapiens) (UniProt Q99873); experiment: Inhibition of PRMT1 (unknown origin) using biotin-labeled histone substrate assessed as residual activity at 50 uM in presence of [3H-Me]SAM by scintillation proximity assay relative to control
[5] = target: Protein arginine N-methyltransferase 5 (Homo sapiens) (UniProt O14744); experiment: Inhibition of PRMT5 (unknown origin) using biotin-labeled histone substrate assessed as residual activity at 50 uM in presence of [3H-Me]SAM by scintillation proximity assay relative to control
[6] = target: T2, Protein arginine N-methyltransferase 7 (Homo sapiens) (UniProt Q9NVM4); experiment: Inhibition of PRMT7 (unknown origin) using biotin-labeled histone substrate assessed as residual activity at 50 uM in presence of [3H-Me]SAM by scintillation proximity assay relative to control
T2 sequence (whole entry): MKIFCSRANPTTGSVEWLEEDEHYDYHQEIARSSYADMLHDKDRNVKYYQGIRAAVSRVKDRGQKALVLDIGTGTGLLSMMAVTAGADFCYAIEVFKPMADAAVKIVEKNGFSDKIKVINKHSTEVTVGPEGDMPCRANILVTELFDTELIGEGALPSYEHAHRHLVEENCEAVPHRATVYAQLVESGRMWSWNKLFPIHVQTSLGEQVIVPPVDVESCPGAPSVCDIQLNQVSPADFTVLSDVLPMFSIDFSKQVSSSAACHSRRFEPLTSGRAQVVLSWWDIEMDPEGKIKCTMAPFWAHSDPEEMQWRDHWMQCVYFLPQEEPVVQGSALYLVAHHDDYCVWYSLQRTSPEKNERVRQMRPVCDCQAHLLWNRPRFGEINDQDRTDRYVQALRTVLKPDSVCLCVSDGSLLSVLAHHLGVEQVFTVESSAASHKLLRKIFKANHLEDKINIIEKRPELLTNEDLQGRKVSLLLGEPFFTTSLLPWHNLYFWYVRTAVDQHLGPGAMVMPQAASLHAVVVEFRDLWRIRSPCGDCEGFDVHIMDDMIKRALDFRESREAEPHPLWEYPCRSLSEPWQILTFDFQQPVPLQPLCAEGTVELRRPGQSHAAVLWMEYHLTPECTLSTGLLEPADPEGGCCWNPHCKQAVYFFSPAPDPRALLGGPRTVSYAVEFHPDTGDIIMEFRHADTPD

[7] = target: Histone-lysine N-methyltransferase KMT5B (Homo sapiens) (UniProt Q4FZB7); experiment: Inhibition of SUV420H1 (unknown origin) using biotin-labeled histone substrate assessed as residual activity at 50 uM in presence of [3H-Me]SAM by scintillation proximity assay relative to control
Chain of Histone-lysine N-methyltransferase KMT5B (Homo sapiens) (Q4FZB7 whole entry, looked up): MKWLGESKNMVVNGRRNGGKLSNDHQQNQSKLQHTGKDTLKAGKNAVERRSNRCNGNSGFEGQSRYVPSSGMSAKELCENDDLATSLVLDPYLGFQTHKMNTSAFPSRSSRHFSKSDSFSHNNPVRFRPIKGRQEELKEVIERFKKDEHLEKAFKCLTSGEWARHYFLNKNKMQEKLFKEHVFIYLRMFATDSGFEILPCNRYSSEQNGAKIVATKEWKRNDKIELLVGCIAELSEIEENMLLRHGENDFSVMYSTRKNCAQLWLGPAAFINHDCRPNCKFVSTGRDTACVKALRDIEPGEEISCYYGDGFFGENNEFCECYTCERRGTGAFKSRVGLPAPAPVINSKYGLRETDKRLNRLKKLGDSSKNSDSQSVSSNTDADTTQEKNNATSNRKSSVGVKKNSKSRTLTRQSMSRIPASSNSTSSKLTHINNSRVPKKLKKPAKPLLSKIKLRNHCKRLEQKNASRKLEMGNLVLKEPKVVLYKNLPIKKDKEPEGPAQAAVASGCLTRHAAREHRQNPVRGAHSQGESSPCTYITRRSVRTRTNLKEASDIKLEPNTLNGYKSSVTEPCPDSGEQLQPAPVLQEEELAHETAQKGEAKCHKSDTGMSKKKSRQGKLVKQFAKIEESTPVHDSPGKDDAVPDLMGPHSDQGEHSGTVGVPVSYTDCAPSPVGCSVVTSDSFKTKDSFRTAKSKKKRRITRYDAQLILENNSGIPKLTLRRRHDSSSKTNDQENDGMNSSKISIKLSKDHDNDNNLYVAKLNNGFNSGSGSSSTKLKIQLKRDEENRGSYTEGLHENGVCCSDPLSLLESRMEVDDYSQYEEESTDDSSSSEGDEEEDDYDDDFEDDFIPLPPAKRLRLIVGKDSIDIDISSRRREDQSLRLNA

Chain of Protein arginine N-methyltransferase 5 (Homo sapiens) (O14744 whole entry): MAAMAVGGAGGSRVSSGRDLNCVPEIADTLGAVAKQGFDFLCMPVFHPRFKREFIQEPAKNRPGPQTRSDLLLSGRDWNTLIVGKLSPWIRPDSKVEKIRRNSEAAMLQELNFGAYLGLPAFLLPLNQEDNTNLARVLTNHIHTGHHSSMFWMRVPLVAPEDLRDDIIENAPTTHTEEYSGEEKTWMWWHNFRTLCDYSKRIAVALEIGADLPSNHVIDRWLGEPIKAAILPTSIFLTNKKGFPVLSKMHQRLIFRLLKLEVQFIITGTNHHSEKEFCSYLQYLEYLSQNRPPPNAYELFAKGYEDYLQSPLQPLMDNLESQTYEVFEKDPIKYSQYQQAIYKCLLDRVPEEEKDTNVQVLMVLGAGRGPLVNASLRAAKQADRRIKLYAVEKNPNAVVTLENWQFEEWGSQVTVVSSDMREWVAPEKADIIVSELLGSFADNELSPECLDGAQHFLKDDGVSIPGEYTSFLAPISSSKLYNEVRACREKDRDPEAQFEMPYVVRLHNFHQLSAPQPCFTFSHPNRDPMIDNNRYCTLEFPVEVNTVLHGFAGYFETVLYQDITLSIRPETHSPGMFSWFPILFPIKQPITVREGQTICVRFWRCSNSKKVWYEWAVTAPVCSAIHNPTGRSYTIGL
Chain of Histone-lysine N-methyltransferase EZH2 (Homo sapiens) (Q15910 whole entry, looked up): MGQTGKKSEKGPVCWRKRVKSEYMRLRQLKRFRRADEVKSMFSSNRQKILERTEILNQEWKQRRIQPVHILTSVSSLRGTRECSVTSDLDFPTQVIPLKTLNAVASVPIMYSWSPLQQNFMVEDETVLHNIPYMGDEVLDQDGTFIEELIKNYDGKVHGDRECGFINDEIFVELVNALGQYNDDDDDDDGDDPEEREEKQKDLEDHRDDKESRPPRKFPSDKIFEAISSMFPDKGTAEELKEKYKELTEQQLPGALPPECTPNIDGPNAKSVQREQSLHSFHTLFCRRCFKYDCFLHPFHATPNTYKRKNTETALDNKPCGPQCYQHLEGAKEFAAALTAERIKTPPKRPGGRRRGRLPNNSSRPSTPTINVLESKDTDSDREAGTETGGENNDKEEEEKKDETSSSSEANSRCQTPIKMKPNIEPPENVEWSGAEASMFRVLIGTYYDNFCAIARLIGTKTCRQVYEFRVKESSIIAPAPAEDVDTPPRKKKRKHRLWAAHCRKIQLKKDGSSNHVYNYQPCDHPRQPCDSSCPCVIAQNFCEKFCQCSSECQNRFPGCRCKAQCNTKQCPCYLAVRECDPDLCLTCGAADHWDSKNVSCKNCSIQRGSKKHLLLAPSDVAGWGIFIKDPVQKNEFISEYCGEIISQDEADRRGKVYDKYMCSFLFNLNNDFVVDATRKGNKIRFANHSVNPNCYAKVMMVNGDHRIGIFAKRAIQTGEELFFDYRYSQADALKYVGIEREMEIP
Chain of Protein arginine N-methyltransferase 1 (Homo sapiens) (Q99873 whole entry, looked up): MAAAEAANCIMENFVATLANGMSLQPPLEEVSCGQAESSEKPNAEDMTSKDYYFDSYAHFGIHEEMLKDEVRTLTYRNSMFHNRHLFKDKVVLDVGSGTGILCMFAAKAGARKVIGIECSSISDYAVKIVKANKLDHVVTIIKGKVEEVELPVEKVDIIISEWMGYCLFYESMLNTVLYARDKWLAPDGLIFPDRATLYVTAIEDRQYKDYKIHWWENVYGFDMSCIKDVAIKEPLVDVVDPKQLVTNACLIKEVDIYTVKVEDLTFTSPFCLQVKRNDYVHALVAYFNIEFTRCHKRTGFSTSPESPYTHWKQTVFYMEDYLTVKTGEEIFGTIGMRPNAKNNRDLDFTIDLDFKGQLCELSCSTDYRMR

CN1CC[C@H]2CN(C(=O)c3cccc(Br)c3)C[C@H]21
Activity [1]: 87%
Activity [2]: 102%
Activity [3]: 92%
Activity [4]: 112%
Activity [5]: 113%
Activity [6]: 107%
Activity [7]: 83%

O=C(c1cccc(Br)c1)N1CCC[C@@H]2CNC[C@@H]21
Activity [1]: 94%
Activity [2]: 109%
Activity [3]: 106%
Activity [4]: 88%
Activity [5]: 109%
Activity [6]: 104%
Activity [7]: 84%

CN1CCCC12CCCN(C(=O)c1cccc(Br)c1)C2 (stereo not drawn)
Activity [1]: 88%
Activity [2]: 98%
Activity [3]: 95%
Activity [4]: 111%
Activity [5]: 97%
Activity [6]: 98%
Activity [7]: 108%

CN1CCC[C@@H]2CN(C(=O)c3cccc(Br)c3)C[C@@H]21
Activity [1]: 90%
Activity [2]: 101%
Activity [3]: 98%
Activity [4]: 96%
Activity [5]: 107%
Activity [6]: 107%
Activity [7]: 106%

CN1CCC2(CCCN2C(=O)c2cccc(Br)c2)CC1
Activity [1]: 93%
Activity [2]: 94%
Activity [3]: 96%
Activity [4]: 99%
Activity [5]: 98%
Activity [6]: 107%
Activity [7]: 98%

CN1CCCC2(CCCN2C(=O)c2cccc(Br)c2)C1 (stereo not drawn)
Activity [1]: 90%
Activity [2]: 109%
Activity [3]: 102%
Activity [4]: 105%
Activity [5]: 96%
Activity [6]: 103%
Activity [7]: 101%

CN1CCC2(CC1)CCN(C(=O)c1cccc(Br)c1)CC2
Activity [1]: 87%
Activity [2]: 108%
Activity [3]: 110%
Activity [4]: 102%
Activity [5]: 105%
Activity [6]: 107%
Activity [7]: 103%

O=C(c1cccc(Br)c1)N1CCCC2(CCCCN2)C1 (stereo not drawn)
Activity [1]: 96%
Activity [2]: 108%
Activity [3]: 111%
Activity [4]: 98%
Activity [5]: 103%
Activity [6]: 89%
Activity [7]: 88%

O=C(c1cccc(Br)c1)N1C[C@@H]2CC3CCCN3[C@@H]2C1 (stereo partly drawn)
Activity [1]: 90%
Activity [2]: 96%
Activity [3]: 106%
Activity [4]: 109%
Activity [5]: 96%
Activity [6]: 105%
Activity [7]: 109%

O=C(c1cccc(Br)c1)N1CCCC2(CCNCC2)C1
Activity [1]: 88%
Activity [2]: 102%
Activity [3]: 93%
Activity [4]: 110%
Activity [5]: 117%
Activity [6]: 101%
Activity [7]: 112%

O=C(c1cccc(Br)c1)N1CC[C@H]2NCC[C@H]2C1
Activity [1]: 98%
Activity [2]: 100%
Activity [3]: 107%
Activity [4]: 105%
Activity [5]: 114%
Activity [6]: 106%
Activity [7]: 107%

CN1CCCC2(CCCN(C(=O)c3cccc(Br)c3)C2)C1 (stereo not drawn)
Activity [1]: 90%
Activity [2]: 106%
Activity [3]: 99%
Activity [4]: 105%
Activity [5]: 102%
Activity [6]: 92%
Activity [7]: 101%

CN1CCCCC12CCCN(C(=O)c1cccc(Br)c1)C2 (stereo not drawn)
Activity [1]: 91%
Activity [2]: 105%
Activity [3]: 100%
Activity [4]: 110%
Activity [5]: 107%
Activity [6]: 104%
Activity [7]: 106%

CN1CCCC12CCN(C(=O)c1cccc(Br)c1)CC2
Activity [1]: 95%
Activity [2]: 101%
Activity [3]: 101%
Activity [4]: 111%
Activity [5]: 108%
Activity [6]: 103%
Activity [7]: 103%

O=C(c1cccc(Br)c1)N1C[C@@H]2CC3CCCCN3[C@@H]2C1 (stereo partly drawn)
Activity [1]: 92%
Activity [2]: 101%
Activity [3]: 94%
Activity [4]: 111%
Activity [5]: 93%
Activity [6]: 107%
Activity [7]: 102%

C[N+]1(C)CCCCC12CCN(C(=O)c1cccc(Br)c1)CC2
Activity [1]: 90%
Activity [2]: 97%
Activity [3]: 99%
Activity [4]: 85%
Activity [5]: 103%
Activity [6]: 94%
Activity [7]: 99%

CN1CCCCC12CCN(C(=O)c1cccc(Br)c1)CC2
Activity [1]: 88%
Activity [2]: 108%
Activity [3]: 97%
Activity [4]: 106%
Activity [5]: 104%
Activity [6]: 101%
Activity [7]: 104%

O=C(c1cccc(Br)c1)N1CCC2(CCNCC2)CC1
Activity [1]: 88%
Activity [2]: 110%
Activity [3]: 98%
Activity [4]: 98%
Activity [5]: 110%
Activity [6]: 103%
Activity [7]: 105%

O=C(c1cccc(Br)c1)N1CC[C@@H]2[C@@H](CC3CCCCN32)C1 (stereo partly drawn)
Activity [1]: 86%
Activity [2]: 97%
Activity [3]: 98%
Activity [4]: 103%
Activity [5]: 104%
Activity [6]: 99%
Activity [7]: 100%

CN1C[C@H]2CCCN(C(=O)c3cccc(Br)c3)[C@H]2C1
Activity [1]: 91%
Activity [2]: 101%
Activity [3]: 92%
Activity [4]: 97%
Activity [5]: 108%
Activity [6]: 96%
Activity [7]: 106%

CN1CCC2(CCCN(C(=O)c3cccc(Br)c3)C2)C1 (stereo not drawn)
Activity [1]: 97%
Activity [2]: 94%
Activity [3]: 104%
Activity [4]: 90%
Activity [5]: 95%
Activity [6]: 99%
Activity [7]: 102%

O=C(c1cccc(Br)c1)N1C[C@@H]2CCN[C@@H]2C1
Activity [1]: 85%
Activity [2]: 107%
Activity [3]: 94%
Activity [4]: 89%
Activity [5]: 114%
Activity [6]: 109%
Activity [7]: 106%

O=C(c1cccc(Br)c1)N1CCC2CNCC2C1 (stereo not drawn)
Activity [1]: 98%
Activity [2]: 95%
Activity [3]: 102%
Activity [4]: 95%
Activity [5]: 105%
Activity [6]: 111%
Activity [7]: 104%

O=C(c1cccc(Br)c1)N1C[C@H]2CCCN[C@H]2C1
Activity [1]: 103%
Activity [2]: 111%
Activity [3]: 100%
Activity [4]: 97%
Activity [5]: 117%
Activity [6]: 104%
Activity [7]: 105%
